Source: patent US12371453B2, “Polypeptide having antibacterial activity, composition for preventing or treating sepsis comprising same, and antibacterial composition” (priority 2019, dated 2025)
Like-named read-outs stand apart in the source and are kept apart here. Square brackets hold non-standard residues; d marks the D form. Ends that are not written are not given here. Peptide text beside a SMILES is read from it.

Columns and labels:
[1] = system: Acinetobacter baumannii (ATCC 19606); assay: microbe, parasite or virus in culture; conditions: for MIC: Acinetobacter baumannii
Protocol: (§1) To compare the antibacterial activity between the four commercially available antibiotics (ampicillin, gentamicin, levofloxacin and imipenem) and the allD FP13-NH2 (AcOH) peptide, an antibacterial activity test was performed to measure the minimum inhibitory concentrations (MIC50 and MIC80) for gram-negative and gram-positive standard strains (Escherichia coli DH5α, Escherichia coli K1, Acinetobacter baumannii, Pseudomonas aeruginosa, Salmonella enteritidis, Salmonella typhimurium, and Klebsiella pneumoniae).
(§2) More specifically, 100 μL of a medium was dispensed into each well of a 96-well plate, and in the first column, an antibiotic and a peptide in 200 μL of the medium were dispensed. 1/2 serial dilution was performed from columns 1 to 11, and gram-negative and gram-positive bacteria which had been previously cultured were diluted (OD600 nm value in dilution: approximately 0.0025) and dispensed into each well. The plate was incubated in a 37° C. incubator for 4 hours, and measured at OD600 nm.

[2] = system: Escherichia coli DH5α (ATCC PTA-4750); assay: microbe, parasite or virus in culture; conditions: for MIC: Escherichia coli, 4 h
Protocol: as §1, §2

Escherichia coli K1 = assay: microbe, parasite or virus in culture; conditions: for MIC: Escherichia coli
Protocol: as §1, §2

[3] = system: Klebiella pneumoniae (ATCC 13883); assay: microbe, parasite or virus in culture; conditions: for MIC (μg/ml) 50% / MIC (μg/ml) 80%: Klebsiella pneumoniae ATCC 13883; for MIC (μg/ml) 50%: 50% growth inhibition; for MIC (μg/ml) 80%: 80% growth inhibition; for MIC: Klebsiella pneumoniae
Protocol: as §1, §2

[4] = system: Pseudomanas aeruginosa PAO1 (ATCC 47085D-5); assay: microbe, parasite or virus in culture; conditions: for MIC (μg/ml) 50% / MIC (μg/ml) 80%: Pseudomonas aeruginosa PAO1; for MIC (μg/ml) 50%: 50% growth inhibition; for MIC (μg/ml) 80%: 80% growth inhibition; for MIC: Pseudomonas aeruginosa
Protocol: as §1, §2

[5] = system: Salmonela enteritidis (ATCC 13076); assay: microbe, parasite or virus in culture; conditions: for MIC: Salmonella enterica
Protocol: as §1, §2

[6] = system: Salmonela typhimurium (ATCC 53648); assay: microbe, parasite or virus in culture; conditions: for MIC: Salmonella enterica
Protocol: as §1, §2

CR-Klebsiella pneumoniae = system: CR-Klebsiella pneumoniae
Protocol: (§3) The antibacterial activity was evaluated according to an antibacterial activity test method for measuring the minimum inhibitory concentration 50 (MIC50; the minimal concentration that kills 50% of bacteria).
as §2, with “11” for “11,”, “five types of antibiotic-resistant” for “gram-negative and gram-positive”, “bacteria (ESBL-resistant E. coli, carbapenem-resistant A. baumannii, carbapenem-resistant Klebsiella pneumoniae, carbapenem-resistant Pseudomonas aeruginosa, colistin-resistant Acinetobactor baumannii),” for “bacteria”, “cultured,” for “cultured”

[7] = system: Colistin resistant AB (Acinetobactor baumannii)
Protocol: as §3
as §2, with “11” for “11,”, “five types of antibiotic-resistant” for “gram-negative and gram-positive”, “bacteria (ESBL-resistant E. coli, carbapenem-resistant A. baumannii, carbapenem-resistant Klebsiella pneumoniae, carbapenem-resistant Pseudomonas aeruginosa, colistin-resistant Acinetobactor baumannii),” for “bacteria”, “cultured,” for “cultured”

ESBL (E. coli) = system: ESBL (E. coli)
Protocol: as §3
as §2, with “11” for “11,”, “five types of antibiotic-resistant” for “gram-negative and gram-positive”, “bacteria (ESBL-resistant E. coli, carbapenem-resistant A. baumannii, carbapenem-resistant Klebsiella pneumoniae, carbapenem-resistant Pseudomonas aeruginosa, colistin-resistant Acinetobactor baumannii),” for “bacteria”, “cultured,” for “cultured”

[8] = system: Carbapenem resistant (CR)-Acinetobactor baumannii; assay: organism not typed
Protocol: as §3
as §2, with “11” for “11,”, “five types of antibiotic-resistant” for “gram-negative and gram-positive”, “bacteria (ESBL-resistant E. coli, carbapenem-resistant A. baumannii, carbapenem-resistant Klebsiella pneumoniae, carbapenem-resistant Pseudomonas aeruginosa, colistin-resistant Acinetobactor baumannii),” for “bacteria”, “cultured,” for “cultured”

[9] = LPS binding affinity by Isothermal Titration Calorimeter (ITC); design: species or system E. coli K1; conditions: for Kd: peptide binding to LPS, read-out: Kd (calculated by ITC); for LPS binding affinity (in words): compared with FP1 (wild type, WT)
Description: FPT (ADK 44-54) is denoted by wild type (WT), and peptides in which a point mutation occurred at various sites in WT were manufactured (FP3, FP5, FP6, and FP9). To increase the interaction with LPS in a residue sequence of FP3, peptides were designed based on FP3- and LPS-binding models (FP12-NH2 and FP13-NH2), and peptides were designed by additionally introducing a non-natural amino acid and an amino acid isomer (allomeric D-type amino acid) (allD FP12-NH2, allD FP13-NH2, allD FP-13-9a, allD FP-13-9w, allD FP-13-9k, and allD FP13-NH2 (AcOH)). In addition, an N-terminus PEGylated peptide (PEG-alld FP13-NH2 (AcOH)) was additionally designed, synthesized, and provided by ANYGEN, Co. Ltd. The binding affinity between each of the provided peptides and lipopolysaccharide (LPS) was confirmed through measuring the binding affinity (Kd) using Isothermal Titration Calorimeter (ITC).
Specifically, a method of analyzing binding affinity (Kd) between a peptide and LPS is as follows.
Measurement was carried out using a Malvern MicroCal PEAQ-ITC cell instrument, and the following pretreatment was carried out to confirm interaction with LPS. The amount and morphology of a sample cell are 300 μL and coin-shaped, fixed-in-place, respectively; a syringe rotation rate was 1,200 rpm; and a temperature was 30° C., 35° C. or 25° C.
Before the experiment, LPS and the peptide were previously diluted with PBS, thereby preparing 2 mM LPS and 0.2 mM peptide. 300 μL of the peptide was added into cells in the ITC instrument, which had been washed, and 40 μL of LPS was put into a syringe. After measurement conditions for ITC (temperature, number of injections) were set, the syringe was inserted into the cell, and ITC measurement was started. When the measurement was completed, analysis is performed, and the Kd values of LPS and the peptide were calculated.

[10] = ATCC19606, read-out: MIC (μg/ml) 50%
[11] = ATCC19606, read-out: MIC (μg/ml) 80%
[12] = colistin resistant A. baumannii

Compound: CC1(C)S[C@@H]2[C@H](NC(=O)[C@H](N)c3ccccc3)C(=O)N2[C@H]1C(=O)O [Ampicillin, ampicillin]
- MIC [1, 10]: < 32 µg/mL
- MIC [1, 11]: < 64 µg/mL
- MIC ([2]; read-out: MIC (μg/ml) 50%): < 2 µg/mL
- MIC ([2]; read-out: MIC (μg/ml) 80%): < 4 µg/mL
- MIC (Escherichia coli K1; K1, read-out: MIC (μg/ml) 50%): < 4 µg/mL
- MIC (Escherichia coli K1; K1, read-out: MIC (μg/ml) 80%): < 8 µg/mL
- MIC (μg/ml) 50% [3]: no effect
- MIC (μg/ml) 80% [3]: no effect
- MIC (μg/ml) 50% [4]: no effect
- MIC (μg/ml) 80% [4]: no effect
- MIC ([5]; read-out: MIC (μg/ml) 50%): < 4 µg/mL
- MIC ([5]; read-out: MIC (μg/ml) 80%): < 8 µg/mL
- MIC ([6]; read-out: MIC (μg/ml) 50%): < 1 µg/mL
- MIC ([6]; read-out: MIC (μg/ml) 80%): < 2 µg/mL
- MIC50, CR-Klebsiella pneumoniae (CR-Klebsiella pneumoniae; CR-K. pneumoniae): No effect
- MIC50, Colistin resistant AB [7, 12]: No effect
- MIC50, ESBL (E. coli) (ESBL (E. coli); ESBL E. coli): No effect
- MIC50 ([8]; read-out: MIC50, Carbapenem resistant (CR)-Acinetobactor baumannii): < 16 µg/mL

Compound: C[C@H]1COc2c(N3CCN(C)CC3)c(F)cc3c(=O)c(C(=O)O)cn1c23 [Levofloxacin, levofloxacin]
- MIC [1, 10]: < 0.5 µg/mL
- MIC [1, 11]: < 1 µg/mL
- MIC ([2]; read-out: MIC (μg/ml) 50%): < 0.5 µg/mL
- MIC ([2]; read-out: MIC (μg/ml) 80%): < 1 µg/mL
- MIC (Escherichia coli K1; K1, read-out: MIC (μg/ml) 50%): < 0.5 µg/mL
- MIC (Escherichia coli K1; K1, read-out: MIC (μg/ml) 80%): < 1 µg/mL
- MIC ([3]; ATCC13883, read-out: MIC (μg/ml) 50%): < 0.5 µg/mL
- MIC ([3]; ATCC13883, read-out: MIC (μg/ml) 80%): < 1 µg/mL
- MIC ([4]; PAO1, read-out: MIC (μg/ml) 50%): < 0.5 µg/mL
- MIC ([4]; PAO1, read-out: MIC (μg/ml) 80%): < 1 µg/mL
- MIC ([5]; read-out: MIC (μg/ml) 50%): < 0.5 µg/mL
- MIC ([5]; read-out: MIC (μg/ml) 80%): < 1 µg/mL
- MIC ([6]; read-out: MIC (μg/ml) 50%): < 0.5 µg/mL
- MIC ([6]; read-out: MIC (μg/ml) 80%): < 1 µg/mL

Compound: CC(C)C[C@@H](NC(=O)[C@H](N)CCCNC(=N)N)C(=O)N[C@H](CCCNC(=N)N)C(=O)N[C@@H](C(=O)N[C@H](CCCCN)C(=O)N[C@H](CC(C)C)C(=O)N[C@H](CCCNC(=N)N)C(=O)N[C@H](CCCNC(=N)N)C(=O)N[C@H](Cc1c[nH]c2ccccc12)C(=O)N[C@H](CC(C)C)C(=O)N[C@H](CCCNC(=N)N)C(N)=O)C(C)C [allD FP21-NH2] (H-[dR][dL][dR][dV][dK][dL][dR][dR][dW][dL][dR]-NH2; N-terminus assumed)
- MIC50, CR-Klebsiella pneumoniae (CR-Klebsiella pneumoniae; CR-): <4 µg/mL
- MIC50, Colistin resistant AB [7]: <4 µg/mL
- MIC50, ESBL (E. coli) (ESBL (E. coli); ESBL): <0.5 µg/mL
- MIC50, Carbapenem resistant (CR)-Acinetobactor baumannii [8]: <1 µg/mL

Compound: KLGVEAKRYLD [FP1(WT), reference compound]
- Kd [9]: 238 µM

Compound: KLGVEAKRYLR [FP3]
- LPS binding affinity (in words) [9]: strong LPS binding affinity
- Kd [9]: 332 µM

Compound: KLGVEALRYLD [FP9]
- LPS binding affinity (in words) [9]: strong LPS binding affinity
- Kd [9]: 326 µM

Compound: KLRVKLRRWLR [allD FP-13-9w-NH2]
- LPS binding affinity (in words) [9]: strong LPS binding affinity
- Kd [9]: 17.4 µM

Compound: KLRVKLRRYLR [FP13]
- MIC50, CR-Klebsiella pneumoniae (CR-Klebsiella pneumoniae; CR-): <62 µg/mL
- MIC50, Colistin resistant AB [7]: <62 µg/mL
- MIC50, ESBL (E. coli) (ESBL (E. coli); ESBL): <2 µg/mL
- MIC50, Carbapenem resistant (CR)-Acinetobactor baumannii [8]: <16 µg/mL

Compound: LRLGVEAKRYLR [FP5]
- LPS binding affinity (in words) [9]: strong LPS binding affinity
- Kd [9]: 854 µM

Compound: LRLGVELKRYLR [FP6]
- LPS binding affinity (in words) [9]: strong LPS binding affinity
- Kd [9]: 11.1 µM

Compound: PEG-KLRVKLRRYLR-NH2 [PEG-alld FP13-NH2 (AcOH)]
- Kd [9]: 17.5 µM

Compound: RLRVKLRRYLR [FP12]
- MIC50, CR-Klebsiella pneumoniae (CR-Klebsiella pneumoniae; CR-): <62 µg/mL
- MIC50, Colistin resistant AB [7]: <125 µg/mL
- MIC50, ESBL (E. coli) (ESBL (E. coli); ESBL): <2 µg/mL
- MIC50, Carbapenem resistant (CR)-Acinetobactor baumannii [8]: <16 µg/mL

Compound: colistin [reference compound]
- MIC50, CR-Klebsiella pneumoniae (CR-Klebsiella pneumoniae; CR-K. pneumoniae): <125 µg/mL
- MIC50, Colistin resistant AB [7, 12]: No effect
- MIC50, ESBL (E. coli) (ESBL (E. coli); ESBL E. coli): <0.5 µg/mL
- MIC50, Carbapenem resistant (CR)-Acinetobactor baumannii ([8]; CR-A. baumannii): <1 µg/mL

Compound: gentamicin
- MIC (μg/ml) 50% ([1]; Acinetobacter baumannii ATCC 19606, 50% growth inhibition): <1.0 µg/mL
- MIC (μg/ml) 80% ([1]; Acinetobacter baumannii ATCC 19606, 80% growth inhibition): <2.0 µg/mL
- MIC (μg/ml) 50% ([2]; Escherichia coli DH5α, 50% growth inhibition, 4 hours): <0.5 µg/mL
- MIC (μg/ml) 80% ([2]; Escherichia coli DH5α, 80% growth inhibition, 4 hours): <1.0 µg/mL
- MIC (μg/ml) 50% (Escherichia coli K1; Escherichia coli K1, 50% growth inhibition): <0.5 µg/mL
- MIC (μg/ml) 80% (Escherichia coli K1; Escherichia coli K1, 80% growth inhibition): <1.0 µg/mL
- MIC (μg/ml) 50% [3]: <0.5 µg/mL
- MIC (μg/ml) 80% [3]: <1.0 µg/mL
- MIC (μg/ml) 50% [4]: <0.5 µg/mL
- MIC (μg/ml) 80% [4]: <1.0 µg/mL
- MIC (μg/ml) 50% ([5]; Salmonella enteritidis ATCC 13076, 50% growth inhibition): <0.5 µg/mL
- MIC (μg/ml) 80% ([5]; Salmonella enteritidis ATCC 13076, 80% growth inhibition): <1.0 µg/mL
- MIC (μg/ml) 50% ([6]; Salmonella typhimurium ATCC 53648, 50% growth inhibition): <0.5 µg/mL
- MIC (μg/ml) 80% ([6]; Salmonella typhimurium ATCC 53648, 80% growth inhibition): <1.0 µg/mL

Compound: klrvklrralr-NH2 [allD FP-13-9a-NH2]
- LPS binding affinity (in words) [9]: strong LPS binding affinity
- Kd [9]: 9.54 µM

Compound: klrvklrrklr-NH2 [allD FP-13-9k-NH2]
- LPS binding affinity (in words) [9]: strong LPS binding affinity
- Kd [9]: 1.99 µM
